Target: T1, human DGAT1 (Homo sapiens, UniProt O75907)
T1 construct: made in house; host or cells: Sf9 insect cells (recombinant baculovirus); membrane fraction
T1 sequence (O75907 1-488): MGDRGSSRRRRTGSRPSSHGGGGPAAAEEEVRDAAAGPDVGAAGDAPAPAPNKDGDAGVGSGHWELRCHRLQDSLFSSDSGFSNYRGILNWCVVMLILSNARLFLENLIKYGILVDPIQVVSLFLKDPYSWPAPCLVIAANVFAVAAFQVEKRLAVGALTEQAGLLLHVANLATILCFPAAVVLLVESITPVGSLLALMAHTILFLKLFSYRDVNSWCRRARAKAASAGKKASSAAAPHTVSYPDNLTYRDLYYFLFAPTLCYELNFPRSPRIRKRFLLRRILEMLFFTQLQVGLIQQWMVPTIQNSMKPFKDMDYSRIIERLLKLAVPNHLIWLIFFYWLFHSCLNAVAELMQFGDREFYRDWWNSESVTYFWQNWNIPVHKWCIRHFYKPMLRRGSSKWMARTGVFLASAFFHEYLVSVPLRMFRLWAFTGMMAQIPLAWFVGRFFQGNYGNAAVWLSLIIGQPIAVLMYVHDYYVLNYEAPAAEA
Experiment: Human enzyme assay, further developed assay (14C oleoyl CoA, 96 well plate)
Type: biochemical
Settings: human DGAT1 expressed in insect cell (sf9) membranes
Method: The in vitro assay to identify DGAT1 inhibitors uses human DGAT1 expressed in insect cell membranes as the enzyme source (Proc. Natl. Acad. Sci. 1998, 95, 13018-13023). Briefly, sf9 cells were infected with recombinant baculovirus containing human DGAT1 coding sequences and harvested after 48 h. Cells were lysed by sonication and membranes isolated by centrifuging at 28000 rpm for 1 h at 4° C. on a 41% sucrose gradient. The membrane fraction at the interphase was collected, washed, and stored in liquid nitrogen.
In a further developed assay, DGAT1 activity was assayed by a modification of the method described by Coleman (Methods in Enzymology 1992, 209, 98-102). Compound at 0.00003-10 μM (final cone) was incubated with 25 μg/ml (final cone) membrane protein, 5 mM MgCl2, and 100 μM 1,2 dioleoyl-sn-glycerol in a total assay volume of 200 μl in a 96 well plate. The reaction was started by adding ^14C oleoyl coenzyme A (30 μM final concentration) and incubated at room temperature for 30 minutes. The reaction was stopped by adding 300 μl 2-propanol:heptane 7:1. Radioactive triolein product was separated into the organic phase by adding 200 μl heptane and 200 μl 0.1 M carbonate buffer pH 9.5. DGAT1 activity was quantified by counting aliquots of the upper heptane layer by liquid scintillography.

Row | IC50 [nM] | SMILES
1 | 11 | O=C(Nc1ccc(O[C@H]2CC[C@@H](C(=O)O)CC2)nc1)c1nnc(Nc2cccc(Cl)c2Cl)o1 [Example 14, (1s,4s)-4-(5-(5-(2,3-dichlorophenylamino)-1,3,4-oxadiazole-2-carboxamido)pyridin-2-yloxy)cyclohexanecarboxylic acid]
2 | 23 | COc1nc(O[C@H]2CC[C@@H](C(=O)O)CC2)ccc1NC(=O)c1nnc(Nc2ccc(F)c(Cl)c2)o1 [Example 52, (1s,4s)-4-(5-(5-(3-Chloro-4-fluorophenylamino)-1,3,4-oxadiazole-2-carboxamido)-6-methoxypyridin-2-yloxy)cyclohexanecarboxylic acid]
3 | 26 | O=C(Nc1ccc(O[C@H]2C[C@@H](C(=O)O)C2)nc1)c1nnc(Nc2ccc(F)c(F)c2)o1 [Example 65, cis-3-(5-(5-(3,4-difluorophenylamino)-1,3,4-oxadiazole-2-carboxamido)pyridin-2-yloxy)cyclobutanecarboxylic acid]
4 | 150 | COc1cc(NC(=O)c2nnc(Nc3ccc(F)c(Cl)c3)o2)cnc1O[C@H]1CC[C@@H](C(=O)O)CC1 [Example 56, (1s,4s)-4-(5-(5-(3-Chloro-4-fluorophenylamino)-1,3,4-oxadiazole-2-carboxamido)-3-methoxypyridin-2-yloxy)cyclohexanecarboxylic acid]
5 | 27 | Cc1cc(NC(=O)c2nnc(Nc3ccc(F)c(F)c3)o2)cnc1O[C@H]1CC[C@@H](C(=O)O)CC1 [Example 17, (1s,4s)-4-(5-(5-(3,4-difluorophenylamino)-1,3,4-oxadiazole-2-carboxamido)-3-methylpyridin-2-yloxy)cyclohexanecarboxylic acid]
6 | 30 | CC(C)c1ccc(Nc2nnc(C(=O)Nc3ccc(O[C@H]4C[C@@H](C(=O)O)C4)nc3)o2)cc1 [Example 63]
7 | 21 | O=C(Nc1ccc(O[C@H]2CC[C@H](C(=O)O)CC2)nc1)c1nnc(Nc2cccc(OC(F)(F)F)c2)o1 [Example 34, (1r,4r)-4-(5-(5-(3-(trifluoromethoxy)phenylamino)-1,3,4-oxadiazole-2-carboxamido)pyridin-2-yloxy)cyclohexanecarboxylic acid]
8 | 3.4 | O=C(Nc1ccc(O[C@H]2CC[C@@H](C(=O)O)CC2)nc1F)c1nnc(Nc2ccc(F)c(F)c2)o1 [Example 50, (1s,4s)-4-(5-(5-(3,4-Difluorophenylamino)-1,3,4-oxadiazole-2-carboxamido)-6-fluoropyridin-2-yloxy)cyclohexanecarboxylic acid]
9 | 7.2 | CC1(C(=O)O)CCC(Oc2ccc(NC(=O)c3nnc(Nc4ccc(Cl)cc4Cl)o3)cn2)CC1 (stereo not drawn) [Example 67, 4-(5-((5-((2,4-dichlorophenyl)amino)-1,3,4-oxadiazole-2-carbonyl)amino)pyridin-2-yl)oxy-1-methylcyclohexane-1-carboxylic acid]
10 | 12 | O=C(Nc1ccc(OC2CCC(C(=O)O)CC2)nc1)c1nnc(Nc2cc(F)c(F)cc2F)o1 (stereo not drawn) [Example 19, 4-({5-[({5-[(2,4,5-trifluorophenyl)amino]-1,3,4-oxadiazol-2-yl}carbonyl)amino]pyridin-2-yl}oxy)cyclohexanecarboxylic acid]
11 | 35 | COC[C@]1(C(=O)O)CC[C@H](Oc2ccc(NC(=O)c3nnc(Nc4cc(F)c(F)cc4F)o3)cn2)CC1 [Example 3, 1-(Methoxymethyl)-4-(5-(5-(2,4,5-trifluorophenylamino)-1,3,4-oxadiazole-2-carboxamido)pyridin-2-yloxy)cyclohexanecarboxylic acid]
12 | 2.1 | O=C(Nc1ccc(O[C@H]2C[C@H](C(=O)O)C2)nc1)c1nnc(Nc2ccc(F)c(F)c2)o1 [Example 66, trans-3-(5-(5-(3,4-difluorophenylamino)-1,3,4-oxadiazole-2-carboxamido)pyridin-2-yloxy)cyclobutanecarboxylic acid]
13 | 11 | O=C(Nc1ccc(O[C@H]2CC[C@@H](C(=O)O)CC2)nc1)c1nnc(Nc2ccc(Br)cc2Cl)o1 [Example 13, (1s,4s)-4-(5-(5-(4-bromo-2-chlorophenylamino)-1,3,4-oxadiazole-2-carboxamido)pyridin-2-yloxy)cyclohexanecarboxylic acid]
14 | 19 | O=C(Nc1cnc(O[C@H]2CC[C@@H](C(=O)O)CC2)c(F)c1)c1nnc(Nc2ccc(F)c(Cl)c2)o1 [Example 61, (1s,4s)-4-(5-(5-(3-Chloro-4-fluorophenylamino)-1,3,4-oxadiazole-2-carboxamido)-3-fluoropyridin-2-yloxy)cyclohexanecarboxylic acid]
15 | 1.9 | CC(C)c1ccc(Nc2nnc(C(=O)Nc3ccc(O[C@H]4C[C@H](C(=O)O)C4)nc3)o2)cc1 [Example 64]
16 | 4.3 | CC1(C(=O)O)CCC(Oc2ccc(NC(=O)c3nnc(Nc4ccc(F)c(Cl)c4)o3)cn2)CC1 (mixture of isomers) [Example 69, 4-(5-(5-(3-Chloro-4-fluorophenylamino)-1,3,4-oxadiazole-2-carboxamido)pyridin-2-yloxy)-1-methylcyclohexanecarboxylic acid]
17 | 23 | O=C(Nc1ccc(O[C@H]2CC[C@@H](C(=O)O)CC2)nc1)c1nnc(Nc2cccc(OC(F)(F)F)c2)o1 [Example 6, (1s,4s)-4-(5-(5-(3-(trifluoromethoxy)phenylamino)-1,3,4-oxadiazole-2-carboxamido)pyridin-2-yloxy)cyclohexanecarboxylic acid]
18 | 9.8 | O=C(Nc1ccc(OC2CCC(C(=O)O)CC2)nc1)c1nnc(Nc2ccc(F)cc2)o1 (stereo not drawn) [Example 20, 4-4-({5-[({5-[(4-fluorophenyl)amino]-1,3,4-oxadiazol-2-yl}-carbonyl)amino]pyridin-2-yl}oxy)cyclohexanecarboxylic acid]
19 | 21 | Cc1cc(NC(=O)c2nnc(Nc3cccc(Cl)c3)o2)cnc1O[C@H]1CC[C@@H](C(=O)O)CC1 [Example 18, (1s,4s)-4-(5-(5-(3-chlorophenylamino)-1,3,4-oxadiazole-2-carboxamido)-3-methylpyridin-2-yloxy)cyclohexanecarboxylic acid]
20 | 14 | O=C(Nc1cnc(O[C@H]2CC[C@@H](C(=O)O)CC2)c(F)c1)c1nnc(Nc2ccc(F)c(F)c2)o1 [Example 60, (1s,4s)-4-(5-(5-(3,4-Difluorophenylamino)-1,3,4-oxadiazole-2-carboxamido)-3-fluoropyridin-2-yloxy)cyclohexanecarboxylic acid]
21 | 48 | CC(C)(C)c1ccc(Nc2nnc(C(=O)Nc3ccc(O[C@H]4CC[C@H](C(=O)O)CC4)nc3)o2)cc1 [Example 31, (1r,4r)-4-(5-(5-(4-tert-butylphenyl-amino)-1,3,4-oxadiazole-2-carboxamido)pyridin-2-yloxy)cyclo-hexane-carboxylic acid]
22 | 31 | O=C(Nc1ccc(O[C@H]2CC[C@@H](C(=O)O)CC2)nc1)c1nnc(Nc2cc(C(F)(F)F)c(F)cc2F)o1 [Example 5, (1s,4s)-4-(5-(5-(2,4-difluoro-5-(trifluoromethyl)phenylamino)-1,3,4-oxadiazole-2-carboxamido)pyridin-2-yloxy)cyclohexanecarboxylic acid]
23 | 8 | Cc1ccc(Nc2nnc(C(=O)Nc3ccc(O[C@H]4CC[C@@H](C(=O)O)CC4)nc3)o2)cc1Cl [Example 15, (1s,4s)-4-(5-(5-(3-chloro-4-methylphenylamino)-1,3,4-oxadiazole-2-carboxamido)pyridin-2-yloxy)cyclohexanecarboxylic acid]
24 | 16 | O=C(Nc1ccc(O[C@H]2CC[C@H](C(=O)O)CC2)nc1)c1nnc(Nc2cccc(Cl)c2Cl)o1 [Example 28, (1r,4r)-4-(5-(5-(2,3-dichloro-phenylamino)-1,3,4-oxadiazole-2-carboxamido)pyridin-2-yloxy)cyclo-hexane-carboxylic acid]
25 | 494 | C[C@]1(C(=O)O)CC[C@H](Oc2ccc(NC(=O)c3nnc(Nc4ccc(F)c(F)c4)o3)cn2)CC1 [Example 2, (1r,4r)-4-(5-(5-(3,4-difluorophenylamino)-1,3,4-oxadiazole-2-carboxamido)pyridin-2-yloxy)-1-methylcyclohexanecarboxylic acid]
26 | 19 | CC(C)c1ccc(Nc2nnc(C(=O)Nc3ccc(O[C@H]4CC[C@@H](C(=O)O)CC4)nc3)o2)cc1 [Example 10, (1s,4s)-4-(5-(5-(4-isopropylphenylamino)-1,3,4-oxadiazole-2-carboxamido)pyridin-2-yloxy)cyclohexanecarboxylic acid]
27 | 2.1 | O=C(Nc1ccc(O[C@H]2CC[C@@H](C(=O)O)CC2)nc1F)c1nnc(Nc2ccc(F)c(Cl)c2)o1 [Example 55, (1s,4s)-4-(5-(5-(3-Chloro-4-fluorophenylamino)-1,3,4-oxadiazole-2-carboxamido)-6-fluoropyridin-2-yloxy)cyclohexanecarboxylic acid]

Reference: US20110092547A1 (priority 2007, published 2011)
